One test deals with ACHN. Put plainly: Cytotoxicity against human ACHN cells assessed as cell growth inhibition at 10 uM after 48 hrs by SRB assay relative to control. The test is classed as functional. The following applies: read-out: GI. For orientation: The SRB assay estimates cell density from bound dye.
Another test has as its system K562. Put plainly: Cytotoxicity against human K562 cells assessed as cell growth inhibition at 10 uM after 48 hrs by SRB assay relative to control. The test is classed as functional. The settings on record: K562, 48 h, read-out: GI.
Test [1] can be described thus: Cytotoxicity against human OVCAR8 cells assessed as cell growth inhibition at 10 uM after 48 hrs by SRB assay relative to control. The following applies: OVCAR-8, 48 h, read-out: GI. The format is functional.
Test [2] is described as follows: Cytotoxicity against human Hs 578T cells assessed as cell growth inhibition at 10 uM after 48 hrs by SRB assay relative to control. The format is functional. The settings on record: read-out: GI.
The species entered for another test is Homo sapiens. Put plainly: Selectivity ratio of IC50 for PI3Kbeta (unknown origin) to IC50 for human DNA-PK.
Test [3] deals with T1, Phosphatidylinositol 4,5-bisphosphate 3-kinase catalytic subunit alpha isoform (Homo sapiens, UniProt P42336). Put plainly: Inhibition of PI3Kalpha (unknown origin) at 10 uM incubated for 60 mins by kinase-glo luminescence assay.
The nature of test [4]: Cytotoxicity against human LOXIMVI cells assessed as cell growth inhibition at 10 uM after 48 hrs by SRB assay relative to control. The format is functional. The settings on record: LOX IMVI, read-out: GI.
A further test relates to NCI-H23. Put plainly: Cytotoxicity against human NCI-H23 cells assessed as cell growth inhibition at 10 uM after 48 hrs by SRB assay relative to control. The test is classed as functional. The following applies: NCI-H23, 48 h, read-out: GI.
Test [5] deals with T2, Phosphatidylinositol 4,5-bisphosphate 3-kinase catalytic subunit beta isoform (Homo sapiens, UniProt P42338). Put plainly: Inhibition of PI3Kbeta (unknown origin) incubated for 60 mins by kinase-glo luminescence assay. (In general: In Kinase-Glo more light means more ATP remaining.)
Target sequence in this assay (P42338 whole entry, canonical isoform): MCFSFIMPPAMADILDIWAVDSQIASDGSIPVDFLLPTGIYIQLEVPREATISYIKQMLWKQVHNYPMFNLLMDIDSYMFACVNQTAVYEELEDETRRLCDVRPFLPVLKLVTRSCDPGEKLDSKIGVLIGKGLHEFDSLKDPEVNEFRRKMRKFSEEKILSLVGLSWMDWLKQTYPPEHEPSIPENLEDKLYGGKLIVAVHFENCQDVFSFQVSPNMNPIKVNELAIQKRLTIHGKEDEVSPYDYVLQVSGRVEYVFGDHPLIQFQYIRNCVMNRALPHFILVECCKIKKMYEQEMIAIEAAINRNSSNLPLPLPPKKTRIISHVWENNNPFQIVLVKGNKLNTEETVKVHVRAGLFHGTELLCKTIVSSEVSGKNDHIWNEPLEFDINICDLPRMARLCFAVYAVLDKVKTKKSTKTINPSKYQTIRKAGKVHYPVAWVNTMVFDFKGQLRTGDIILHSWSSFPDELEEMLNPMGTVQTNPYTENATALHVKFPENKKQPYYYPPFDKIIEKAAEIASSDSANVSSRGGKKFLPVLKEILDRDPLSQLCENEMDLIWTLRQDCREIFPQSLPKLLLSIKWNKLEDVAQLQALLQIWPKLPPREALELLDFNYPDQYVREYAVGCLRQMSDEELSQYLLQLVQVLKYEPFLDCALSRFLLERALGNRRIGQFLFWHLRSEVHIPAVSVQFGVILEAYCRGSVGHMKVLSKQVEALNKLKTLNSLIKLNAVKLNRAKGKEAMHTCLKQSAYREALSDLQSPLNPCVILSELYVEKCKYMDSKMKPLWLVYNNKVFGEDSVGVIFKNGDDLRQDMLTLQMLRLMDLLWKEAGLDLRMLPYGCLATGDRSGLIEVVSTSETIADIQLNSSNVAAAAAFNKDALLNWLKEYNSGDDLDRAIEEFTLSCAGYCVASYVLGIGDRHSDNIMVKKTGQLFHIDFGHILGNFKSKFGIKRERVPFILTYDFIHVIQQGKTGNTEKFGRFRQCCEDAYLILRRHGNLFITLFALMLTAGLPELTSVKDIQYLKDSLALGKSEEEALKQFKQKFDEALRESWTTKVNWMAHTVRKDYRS
Test [6] in a line: Cytotoxicity against human BT549 cells assessed as cell growth inhibition at 10 uM after 48 hrs by SRB assay relative to control. The format is functional. The following applies: BT-549, 48 h, read-out: GI.
Test [7] can be described thus: Cytotoxicity against human SKOV3 cells assessed as cell growth inhibition at 10 uM after 48 hrs by SRB assay relative to control. The format is functional. The following applies: SK-OV-3, 48 h, read-out: GI.
Test [8] in a line: Cytotoxicity against human MOLT4 cells assessed as cell growth inhibition at 10 uM after 48 hrs by SRB assay relative to control. The following applies: MOLT-4, 48 h, read-out: GI. The format is functional.
In test [9] the target is DNA-dependent protein kinase catalytic subunit (Homo sapiens, UniProt P78527). Put plainly: Inhibition of human DNA-PK using EPPLSQEAFADLWKK as substrate at 10 uM by HTRF assay.
Test [10] deals with T3, Phosphatidylinositol 4,5-bisphosphate 3-kinase catalytic subunit delta isoform (Homo sapiens) (UniProt O00329).
T3 sequence (whole entry): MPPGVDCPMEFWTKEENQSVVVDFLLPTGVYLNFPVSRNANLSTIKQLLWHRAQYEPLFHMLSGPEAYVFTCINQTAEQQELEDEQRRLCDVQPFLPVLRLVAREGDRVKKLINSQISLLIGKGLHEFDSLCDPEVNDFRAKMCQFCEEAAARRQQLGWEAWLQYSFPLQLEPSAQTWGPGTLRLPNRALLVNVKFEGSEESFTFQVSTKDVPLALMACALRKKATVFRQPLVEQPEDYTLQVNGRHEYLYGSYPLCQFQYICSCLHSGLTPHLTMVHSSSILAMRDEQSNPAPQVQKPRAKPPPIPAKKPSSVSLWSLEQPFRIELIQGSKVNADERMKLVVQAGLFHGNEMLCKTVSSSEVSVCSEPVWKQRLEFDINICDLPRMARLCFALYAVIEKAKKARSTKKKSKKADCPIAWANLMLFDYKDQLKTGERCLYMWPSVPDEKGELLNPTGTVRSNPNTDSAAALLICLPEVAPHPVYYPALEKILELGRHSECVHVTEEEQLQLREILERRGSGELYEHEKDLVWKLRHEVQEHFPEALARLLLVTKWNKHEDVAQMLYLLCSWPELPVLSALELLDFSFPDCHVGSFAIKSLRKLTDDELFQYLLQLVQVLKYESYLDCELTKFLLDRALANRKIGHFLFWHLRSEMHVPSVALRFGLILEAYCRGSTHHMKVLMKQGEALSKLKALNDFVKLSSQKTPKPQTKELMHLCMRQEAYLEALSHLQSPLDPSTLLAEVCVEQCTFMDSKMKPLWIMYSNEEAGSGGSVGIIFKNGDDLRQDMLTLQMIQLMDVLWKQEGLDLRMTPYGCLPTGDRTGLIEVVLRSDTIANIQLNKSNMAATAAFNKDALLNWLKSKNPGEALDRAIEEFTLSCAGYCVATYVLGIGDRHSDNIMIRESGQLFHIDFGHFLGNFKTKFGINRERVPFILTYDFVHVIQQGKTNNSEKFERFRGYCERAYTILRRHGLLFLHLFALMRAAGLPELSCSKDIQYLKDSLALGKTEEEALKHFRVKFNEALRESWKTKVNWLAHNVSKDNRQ
Put plainly: Inhibition of PI3Kdelta (unknown origin) at 10 uM incubated for 60 mins by kinase-glo luminescence assay.

Test [11] concerns the target T2, Phosphatidylinositol 4,5-bisphosphate 3-kinase catalytic subunit beta isoform. Put plainly: Inhibition of PI3Kbeta (unknown origin) at 10 uM incubated for 60 mins by kinase-glo luminescence assay.
Target sequence in this assay (P42338 whole entry, looked up, canonical isoform): as the sequence (P42338 whole entry, canonical isoform) above
For test [12], the target named is T1, Phosphatidylinositol 4,5-bisphosphate 3-kinase catalytic subunit alpha isoform. Put plainly: Inhibition of PI3Kalpha (unknown origin) incubated for 60 mins by kinase-glo luminescence assay.

T1 sequence (P42336 whole entry, canonical isoform): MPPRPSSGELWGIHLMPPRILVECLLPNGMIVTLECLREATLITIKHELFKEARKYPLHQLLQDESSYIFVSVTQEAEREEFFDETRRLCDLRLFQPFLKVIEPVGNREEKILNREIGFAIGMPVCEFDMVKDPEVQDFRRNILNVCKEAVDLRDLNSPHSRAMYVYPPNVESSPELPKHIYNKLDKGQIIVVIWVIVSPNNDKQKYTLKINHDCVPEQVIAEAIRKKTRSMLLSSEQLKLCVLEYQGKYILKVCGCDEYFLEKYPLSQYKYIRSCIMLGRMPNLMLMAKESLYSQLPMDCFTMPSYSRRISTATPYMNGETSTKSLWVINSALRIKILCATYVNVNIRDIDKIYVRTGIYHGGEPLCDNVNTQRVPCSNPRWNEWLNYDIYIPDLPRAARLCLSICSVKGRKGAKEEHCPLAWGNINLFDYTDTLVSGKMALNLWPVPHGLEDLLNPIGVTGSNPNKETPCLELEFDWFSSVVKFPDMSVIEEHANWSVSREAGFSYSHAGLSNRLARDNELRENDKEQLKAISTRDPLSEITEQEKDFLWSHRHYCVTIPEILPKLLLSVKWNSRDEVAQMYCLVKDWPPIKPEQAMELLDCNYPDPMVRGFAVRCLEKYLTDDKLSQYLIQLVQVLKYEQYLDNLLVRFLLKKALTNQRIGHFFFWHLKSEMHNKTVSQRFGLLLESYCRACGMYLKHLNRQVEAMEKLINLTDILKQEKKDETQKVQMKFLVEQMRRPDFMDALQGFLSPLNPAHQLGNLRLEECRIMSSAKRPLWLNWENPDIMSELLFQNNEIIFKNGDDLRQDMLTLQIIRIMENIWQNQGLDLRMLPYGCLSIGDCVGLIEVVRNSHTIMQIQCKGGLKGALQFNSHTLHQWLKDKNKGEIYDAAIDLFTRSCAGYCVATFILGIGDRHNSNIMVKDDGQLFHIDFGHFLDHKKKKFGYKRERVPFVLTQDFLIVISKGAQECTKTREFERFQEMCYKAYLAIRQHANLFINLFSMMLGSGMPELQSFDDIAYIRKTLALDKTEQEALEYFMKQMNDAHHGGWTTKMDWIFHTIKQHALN

Take `O=c1nc(N2CCOCC2)oc2c(-c3cccc4ccccc34)cccc12`: the inhibition of growth at 10 µM stood at 18.4% with ACHN; 9.87% in the test on K562; 14.8% in [1]; 16.2% in test [2]; 19.9% in test [4]; 10.7% with NCI-H23. In addition, the inhibition of growth at 10 µM in test [6] came to 14.7%; in test [7], 10%; in test [8], 6.92%. Besides, in the test listed under Homo sapiens, the Ratio IC50 worked out at 8. The inhibition (in general, the change of the read-out against control, counted positive when it falls) in [3] came to 34%. Moreover, in [5], the midpoint of inhibition, the IC50, lay at 5 µM.

With `O=c1nc(N2CCOCC2)oc2ccc(-c3cccc4c3sc3ccccc34)cc12`, the inhibition of growth at 10 µM in the test with ACHN was -1.95%; with K562, 10.7%; in test [1] it was 0.97%; in test [2], 1.62%; in test [4] it was 1.76%; in the test on NCI-H23, -2.37%. Also, the inhibition of growth at 10 µM in [6] is 4.62%; in test [7], -10.4%; in test [8] it was -8.92%. The inhibition in [9] was found to be 8%; in [3], 0%; in test [10], 0%; in test [11], 21%.

In the case of `O=c1nc(N2CCOCC2)oc2c(-c3cccc4c3sc3ccccc34)cccc12`, the inhibition of growth at 10 µM in the test with ACHN was 22.3%; in the test with K562 it was 20.6%; in test [1], 20.2%; in [2], 24.8%; in [4], 21.3%; in the test on NCI-H23, 13.4%. Besides, the inhibition of growth at 10 µM in [6] is 13.6%; in test [7], -11.4%; in test [8], 10.4%. In the test listed under Homo sapiens, the Ratio IC50 came to 170. The compound also yielded an inhibition in [3] of 25%. The midpoint of inhibition in test [5], the IC50, lay at 5.8 µM.

With `NC(=O)c1ccc(-c2cccc3c(=O)nc(N4CCOCC4)oc23)cc1`, the inhibition of growth at 10 µM with ACHN is -0.43%; with K562, -10.4%; in test [1], -1.1%; in [2] it was 2.8%; in [4] it was 8.86%; with NCI-H23 it was 7.55%. The inhibition of growth at 10 µM in test [6] was 1.94%; in test [7], -3.41%; in test [8] it was -2.82%. This compound returned an inhibition in test [11] of 13%. In addition, in test [12], the IC50 (as a rule, the point on the concentration scale where inhibition reaches its midpoint) was greater than 10 µM.

With `O=c1nc(N2CCOCC2)oc2c(-c3ccsc3)cccc12`, the inhibition of growth at 10 µM was 2.44% in the test on ACHN; -1.04% in the test on K562; 3.77% in test [1]; 9.35% in [2]; 10.6% in [4]; 15.4% with NCI-H23. Also, the inhibition of growth at 10 µM in test [6] was 4.54%; in test [7], -0.06%; in test [8], 9.6%. In addition, the values for the IC50 in [5] and in [12] were 3.4 µM and 3 µM, respectively.

As to `O=c1nc(N2CCOCC2)oc2c(-c3cccc4c3oc3ccccc34)cccc12`, the inhibition of growth at 10 µM in the test on ACHN came out at 6.98%; with K562, 19.4%; in [1], 3.88%; in test [2], 14.6%; in test [4], 39.2%; in the test on NCI-H23 it was 11.1%. Besides, the inhibition of growth at 10 µM was 2.25% in [6], -14.9% in test [7] and 4.2% in [8]. The inhibition in test [3] came to 26%. This compound also had a 50% inhibitory concentration (IC50) in test [5] of 6.9 µM.

Turning to `O=c1nc(N2CCOCC2)oc2c(-c3cccs3)cccc12`, the inhibition of growth at 10 µM stood at 2.88% in the test on ACHN; 0.8% in the test with K562; 5% in [1]; 7.89% in test [2]; 14.4% in test [4]; 13% in the test with NCI-H23. The inhibition of growth at 10 µM was 14.5% in test [6], -0.56% in test [7] and -0.6% in [8]. This compound also displayed an inhibition in test [11] of 43%. For the same compound, in test [12], the IC50 was determined as 3.3 µM.

Consider `COc1ccc(-c2cccc3c(=O)nc(N4CCOCC4)oc23)cc1`, for which the inhibition of growth at 10 µM with ACHN turned out to be 6.19%; with K562, 7.02%; in [1], 4.78%; in test [2], 11.1%; in [4], 13%; in the test with NCI-H23, 14.3%. In addition, the inhibition of growth at 10 µM was 4.99% in test [6], -6.51% in test [7] and 1.48% in test [8]. In [11], this compound returned an inhibition of 22%. Besides, in test [12], the IC50 turned out to be 2.8 µM.

The values above are taken from ChEMBL document CHEMBL3763148, “Synthesis, structure elucidation, DNA-PK and PI3K and anti-cancer activity of 8- and 6-aryl-substituted-1-3-benzoxazines” (Eur J Med Chem, 2016).
